Reference: patent US6156700A, “3-(1,2-Benzisothiazol- and isoxazol-5-yl)-2,4(1H,3H)-pyrimidinedione or thione and 3-(1,2-benzisothiazol- and isoxazol-5-yl)-4(3H)-pyrimidinone or thione herbicidal agents” (American Cyanmid Company, priority 1998, dated 2000)

What was measured:
[1] = test system: SAGPY Arrowhead (Pygmaea); assay: Postemergence weed control, flooded paddy (Table IV); format: in vivo, Sagittaria pygmaea; set-up: scale not given here
Summary of the method: (§1)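 Rating scale scores taken 3–4 weeks post-treatment; compounds dosed in flood water (~0.0313–0.500 kg/ha) onto weeds 3–5 cm tall and 1.5–2.5 leaf rice under 1.5–3 cm standing water.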

[2] = test system: Morningglory Spp., Ipomoea Spp.; assay: Preemergence herbicidal evaluation, IPOSS; format: in vivo; details: 0.2500 kg/ha
Summary of the method: (§2)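 Sow seeds in soil-filled cups; spray aqueous acetone compound solution at about 0.0156–0.500 kg/ha; keep on greenhouse benches with routine watering; after four to five weeks, rate visual injury 0–9 compared with control plants.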

[3] = test system: Barnyardgrass, Echinochloa crus-galli; assay: Postemergence herbicidal evaluation, ECHCG; format: in vivo, (L.) Beau; details: 0.2500 kg/ha
Summary of the method: (§3)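 Greenhouse postemergence test. Seedlings about two weeks old sprayed (40 psi) with compound in 50/50 acetone/water, 0.5% TWEEN 20, at rates near 0.0157–0.500 kg/ha; rated 0–9 by eye at 4–5 weeks.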

[4] = test system: ORYSAT Rice, Tebonnet; assay: Rice tolerance, flooded paddy (Table IV); format: in vivo, Oryza sativa; set-up: scale not given here; details: crop tolerance
Summary of the method: as §1

[5] = test system: Wheat, Winter, cv Riband, Triticum aestivum; assay: Postemergence herbicidal evaluation, TRZAWR; format: in vivo; details: 0.2500 kg/ha
Summary of the method: as §3

[6] = test system: CYPIR Rice Flatsedge; assay: Preemergence weed control, flooded paddy (Table III); format: in vivo, Cyperus iria; set-up: scale not given here
Summary of the method: (§4)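 Seeds or propagules sown in silt loam under 1.5 to 3 cm standing flood water; compound in 50/50 aqueous/acetone pipetted into the water at about 0.0313 to 0.500 kg/ha active ingredient. Greenhouse-held; herbicidal effect rated on a scale 3-4 weeks after treatment.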

[7] = test system: Morningglory Spp., Ipomoea Spp.; assay: Postemergence herbicidal evaluation, IPOSS; format: in vivo; details: 0.2500 kg/ha
Summary of the method: as §3

[8] = test system: Sicklepod, Cassia obtusifolia; assay: Preemergence herbicidal evaluation, CASOB; format: in vivo, L.; details: 0.2500 kg/ha
Summary of the method: as §2

[9] = test system: Galium, Galium aparine; assay: Postemergence herbicidal evaluation, GALAP; format: in vivo; details: 0.2500 kg/ha
Summary of the method: as §3

[10] = test system: Ragweed, Common, Ambrosia artemisifolia; assay: Preemergence herbicidal evaluation, AMBEL; format: in vivo, L.; details: 0.2500 kg/ha
Summary of the method: as §2

[11] = test system: SAGPY Arrowhead (Pygmaea); assay: Preemergence weed control, flooded paddy (Table III); format: in vivo, Sagittaria pygmaea; set-up: scale not given here
Summary of the method: as §4

[12] = test system: Velvetleaf, Abutilon theophrasti; assay: Preemergence herbicidal evaluation, ABUTH; format: in vivo, Medic.; details: 0.2500 kg/ha
Summary of the method: as §2

[13] = test system: Corn, Field, Zea mays; assay: Preemergence herbicidal evaluation, ZEAMX; format: in vivo, L.; details: 0.2500 kg/ha
Summary of the method: as §2

[14] = test system: Corn, Field, Zea mays; assay: Postemergence herbicidal evaluation, ZEAMX; format: in vivo, L.; details: 0.2500 kg/ha
Summary of the method: as §3

[15] = test system: Foxtail, Green, Setaria viridis; assay: Postemergence herbicidal evaluation, SETVI; format: in vivo, (L.) Beau; details: 0.2500 kg/ha
Summary of the method: as §3

[16] = test system: MOOVA Monochoria; assay: Postemergence weed control, flooded paddy (Table IV); format: in vivo, Monochoria vaginalis; set-up: scale not given here
Summary of the method: as §1

[17] = test system: Sicklepod, Cassia obtusifolia; assay: Postemergence herbicidal evaluation, CASOB; format: in vivo, L.; details: 0.2500 kg/ha
Summary of the method: as §3

[18] = test system: Rice, Tebonnet, Oryza sativa; assay: Preemergence herbicidal evaluation, ORYSAT; format: in vivo, (L.) Tebonnet; details: 0.2500 kg/ha
Summary of the method: as §2

[19] = test system: ECHORC Watergrass (Calif.); assay: Preemergence weed control, flooded paddy (Table III); format: in vivo, Echinochloa oryzoides; set-up: scale not given here
Summary of the method: as §4

[20] = test system: MOOVA Monochoria; assay: as above; format: in vivo, Monochoria vaginalis; set-up: scale not given here
Summary of the method: as §4

[21] = test system: Ragweed, Common, Ambrosia artemisifolia; assay: Postemergence herbicidal evaluation, AMBEL; format: in vivo, L.; details: 0.2500 kg/ha
Summary of the method: as §3

Cn1c(C(F)(F)F)cc(=O)n(-c2ccc3snc(-c4ccccc4)c3c2)c1=O [Compound 4, 1-Methyl-3-(3-phenyl-1,2-benzisothiazol-5-yl)-6-(trifluoromethyl)-2,4(1H,3H)-pyrimidinedione]
herbicidal effect rating ([1]; 0.1250 kg/ha): 6.0 | herbicidal effect rating ([1]; 0.2500 kg/ha): 9.0 | herbicidal effect rating ([1]; 0.5000 kg/ha): 9.0 | herbicide rating (0-9) [2]: 9.0 | herbicide rating (0-9) [3]: 8.0 | herbicidal effect rating ([4]; 0.1250 kg/ha): 7.0 | herbicidal effect rating ([4]; 0.2500 kg/ha): 8.0 | herbicidal effect rating ([4]; 0.5000 kg/ha): 8.0 | herbicide rating (0-9) [5]: 3.0 | herbicidal effect rating ([6]; 0.0313 kg/ha): 9.0 | herbicidal effect rating ([6]; 0.0625 kg/ha): 9.0 | herbicidal effect rating ([6]; 0.1250 kg/ha): 9.0 | herbicidal effect rating ([6]; 0.2500 kg/ha): 9.0 | herbicidal effect rating ([6]; 0.5000 kg/ha): 9.0 | herbicide rating (0-9) [7]: 9.0 | herbicide rating (0-9) [8]: 9.0 | herbicide rating (0-9) [9]: 9.0 | herbicide rating (0-9) [10]: 9.0 | herbicidal effect rating ([11]; 0.0313 kg/ha): 2.0 | herbicidal effect rating ([11]; 0.0625 kg/ha): 2.0 | herbicidal effect rating ([11]; 0.1250 kg/ha): 6.0 | herbicidal effect rating ([11]; 0.2500 kg/ha): 9.0 | herbicidal effect rating ([11]; 0.5000 kg/ha): 9.0 | herbicide rating (0-9) [12]: 9.0 | herbicide rating (0-9) [13]: 7.0 | herbicide rating (0-9) [14]: 3.0 | herbicide rating (0-9) [15]: 9.0 | herbicidal effect rating ([16]; 0.1250 kg/ha): 9.0 | herbicidal effect rating ([16]; 0.2500 kg/ha): 9.0 | herbicidal effect rating ([16]; 0.5000 kg/ha): 9.0 | herbicide rating (0-9) [17]: 9.0 | herbicide rating (0-9) [18]: 7.0 | herbicidal effect rating ([19]; 0.0313 kg/ha): 9.0 | herbicidal effect rating ([19]; 0.0625 kg/ha): 9.0 | herbicidal effect rating ([19]; 0.1250 kg/ha): 9.0 | herbicidal effect rating ([19]; 0.2500 kg/ha): 9.0 | herbicidal effect rating ([19]; 0.5000 kg/ha): 9.0 | herbicidal effect rating ([20]; 0.0313 kg/ha): 9.0 | herbicidal effect rating ([20]; 0.0625 kg/ha): 9.0 | herbicidal effect rating ([20]; 0.1250 kg/ha): 9.0 | herbicidal effect rating ([20]; 0.2500 kg/ha): 9.0 | herbicidal effect rating ([20]; 0.5000 kg/ha): 9.0 | herbicide rating (0-9) [21]: 9.0

COC(=O)C(C)Oc1cc(C)c(C)cc1-c1nsc2ccc(-n3c(=O)cc(C(F)(F)F)n(C)c3=O)cc12 (centres unmarked) [Compound 13, Methyl 2-{{6-{5-[3,6-dihydro-3-methyl-4-(trifluoromethyl)-2,6-dioxo-1(2H)-pyrimidinyl]-1,2-benzisothiazol-3-yl}-3,4-xylyl}oxy}propionate]
herbicidal effect rating ([1]; 0.1250 kg/ha): 2.0 | herbicidal effect rating ([1]; 0.2500 kg/ha): 2.0 | herbicidal effect rating ([1]; 0.5000 kg/ha): 9.0 | herbicide rating (0-9) [2]: 9.0 | herbicide rating (0-9) [3]: 9.0 | herbicidal effect rating ([4]; 0.1250 kg/ha): 4.0 | herbicidal effect rating ([4]; 0.2500 kg/ha): 4.0 | herbicidal effect rating ([4]; 0.5000 kg/ha): 7.0 | herbicide rating (0-9) [5]: 8.5 | herbicidal effect rating ([6]; 0.0313 kg/ha): 9.0 | herbicidal effect rating ([6]; 0.0625 kg/ha): 9.0 | herbicidal effect rating ([6]; 0.1250 kg/ha): 9.0 | herbicidal effect rating ([6]; 0.2500 kg/ha): 9.0 | herbicidal effect rating ([6]; 0.5000 kg/ha): 9.0 | herbicide rating (0-9) [7]: 9.0 | herbicide rating (0-9) [8]: 9.0 | herbicide rating (0-9) [9]: 8.0 | herbicide rating (0-9) [10]: 9.0 | herbicidal effect rating ([11]; 0.0313 kg/ha): 0.0 | herbicidal effect rating ([11]; 0.0625 kg/ha): 2.0 | herbicidal effect rating ([11]; 0.1250 kg/ha): 6.0 | herbicidal effect rating ([11]; 0.2500 kg/ha): 8.0 | herbicidal effect rating ([11]; 0.5000 kg/ha): 9.0 | herbicide rating (0-9) [12]: 9.0 | herbicide rating (0-9) [13]: 4.0 | herbicide rating (0-9) [14]: 9.0 | herbicide rating (0-9) [15]: 9.0 | herbicidal effect rating ([16]; 0.1250 kg/ha): 9.0 | herbicidal effect rating ([16]; 0.2500 kg/ha): 9.0 | herbicidal effect rating ([16]; 0.5000 kg/ha): 9.0 | herbicide rating (0-9) [17]: 9.0 | herbicide rating (0-9) [18]: 6.0 | herbicidal effect rating ([19]; 0.0313 kg/ha): 9.0 | herbicidal effect rating ([19]; 0.0625 kg/ha): 9.0 | herbicidal effect rating ([19]; 0.1250 kg/ha): 9.0 | herbicidal effect rating ([19]; 0.2500 kg/ha): 9.0 | herbicidal effect rating ([19]; 0.5000 kg/ha): 9.0 | herbicidal effect rating ([20]; 0.0313 kg/ha): 9.0 | herbicidal effect rating ([20]; 0.0625 kg/ha): 9.0 | herbicidal effect rating ([20]; 0.1250 kg/ha): 9.0 | herbicidal effect rating ([20]; 0.2500 kg/ha): 9.0 | herbicidal effect rating ([20]; 0.5000 kg/ha): 9.0 | herbicide rating (0-9) [21]: 9.0
